{"source": "patent US20220386613A1", "about": "“WEED CONTROL METHOD AND MIXED AGROCHEMICAL COMPOSITION FOR SOIL TREATMENT” (KUMIAI CHEMICAL INDUSTRY CO., LTD., priority 2019, published 2022)", "assay_type_in_all_cases": "in vivo", "key": {"[1]": {"test_system": "barnyard grass (Echinochloa crus-galli)", "assay": "Herbicidal effect evaluation test on weeds by soil treatment (barnyard grass)", "settings": "Day 18 after treatment (4.2 L)", "description": "(§1) In a greenhouse having an average temperature of 25° C. (highest: 30° C., lowest: 25° C.), field soil (sandy loam) was filled in a plastic pot of 11 cm in length, width and depth, and twenty seeds of each of barnyard grass (Echinochloa crus-galli) and redroot amaranth (Amaranthus retroflexus) were sowed and covered with the same soil at a thickness of 1 cm. […] On the day of this chemical treatment, a total of 2-mm rainfall was artificially applied in 30 minutes using an artificial rain maker. Thereafter, barnyard grass and redroot amaranth were grown and, on Day 18 after the treatment, the growth conditions of barnyard grass and redroot amaranth were observed and examined. The rates of reduction in the plant height and the number of leaves relative to an untreated area were each calculated, and the herbicidal effect was determined as a value obtained by adding the thus calculated rates of reduction and dividing this value by 2 for evaluation of the degree of the herbicidal effect. For example, the herbicidal effect is 90% when the plant height was decreased by 90% and the number of leaves was reduced from 10 to 1, while the herbicidal effect is 75% when the plant height was decreased by 70% and the number of leaves was reduced from 5 to 1. It is noted here that, in Table 1, each value of the herbicidal effect represents an average value of two herbicidal effect evaluation tests."}, "[2]": {"test_system": "redroot amaranth (Amaranthus retroflexus)", "assay": "Herbicidal effect evaluation test on weeds by soil treatment (redroot amaranth)", "settings": "Day 18 after treatment (4 L)", "description": "as §1"}, "soybean (Glycine max)": {"test_system": "soybean (Glycine max)", "assay": "Evaluation test of crop injury to soybean by soil treatment", "settings": "15-mm rainfall", "description": "In a greenhouse having an average temperature of 25° C. (highest: 30° C., lowest: 25° C.), field soil (sandy loam) was filled in a plastic pot of 11 cm in length, width and depth, and a single seed of soybean (Glycine max) was sowed and covered with the same soil at a thickness of 2 cm. […] On the day of this chemical treatment, a total of 15-mm rainfall was artificially applied in 30 minutes using an artificial rain maker. Thereafter, the soybean was grown and, on Day 15 and Day 39 after the treatment or on Day 13 and Day 26 after the treatment, the growth conditions of the soybean were observed and examined in terms of the plant height and the number of leaves. The rates of reduction in the plant height and the number of leaves relative to an untreated area were each determined, and the thus determined rates of reduction were added and then divided by 2 to calculate the growth inhibition rate for evaluation of the degree of crop injury. […] It is noted here that, in Tables 2 to 5, each growth inhibition rate represents an average value of two crop injury evaluation tests. […] The values observed in the test each indicated an effect lower than the expected value calculated by the following Colby formula at a preferable dosage (see S. R. Colby, Weeds 15(1967), pp. 20-22). Colby's formula defines the expected value (E) as follows for the use of a combination of two chemical agents: (E)=X+Y−XY/100 wherein X represents the growth inhibition rate of an agent a at a concentration of x, and Y represents the growth inhibition rate of an agent b at a concentration of y."}, "[3]": {"settings": "active component 160 g/ha (sulfentrazone)"}, "[4]": {"settings": "active component 320 g/ha (sulfentrazone)"}, "[5]": {"settings": "active component 70 g/ha (flumioxazin)"}, "[6]": {"settings": "active component 140 g/ha (flumioxazin)"}, "[7]": {"settings": "active component 25 g/ha (saflufenacil)"}, "[8]": {"settings": "active component 50 g/ha (saflufenacil)"}}, "data": [{"compound": "Cc1nn(-c2cc(NS(C)(=O)=O)c(Cl)cc2Cl)c(=O)n1C(F)F", "note": "[Sulfentrazone, sulfentrazone]", "values": [{"measurement": "Herbicidal effect, barnyard grass", "setting": "[1]; [3]", "result": 100, "unit": "%"}, {"measurement": "Herbicidal effect, barnyard grass", "setting": "[1]; [4]", "result": 100, "unit": "%"}, {"measurement": "Herbicidal effect, redroot amaranth", "setting": "[2]; [3]", "result": 100, "unit": "%"}, {"measurement": "Herbicidal effect, redroot amaranth", "setting": "[2]; [4]", "result": 100, "unit": "%"}]}, {"compound": "C#CCN1C(=O)COc2cc(F)c(N3C(=O)C4=C(CCCC4)C3=O)cc21", "note": "[Flumioxazin, flumioxazin]", "values": [{"measurement": "Herbicidal effect, barnyard grass", "setting": "[1]; [5]", "result": 100, "unit": "%"}, {"measurement": "Herbicidal effect, barnyard grass", "setting": "[1]; [6]", "result": 100, "unit": "%"}, {"measurement": "Herbicidal effect, redroot amaranth", "setting": "[2]; [5]", "result": 100, "unit": "%"}, {"measurement": "Herbicidal effect, redroot amaranth", "setting": "[2]; [6]", "result": 100, "unit": "%"}, {"measurement": "Soybean growth inhibition rate", "setting": "soybean (Glycine max); Table 2, 70 g/ha (flumioxazin), Day 15 after treatment", "result": 15, "unit": "%"}, {"measurement": "Soybean growth inhibition rate", "setting": "soybean (Glycine max); Table 2, 70 g/ha (flumioxazin), Day 39 after treatment", "result": 5, "unit": "%"}, {"measurement": "Soybean growth inhibition rate", "setting": "soybean (Glycine max); Table 3, 140 g/ha (flumioxazin), Day 15 after treatment", "result": 25, "unit": "%"}, {"measurement": "Soybean growth inhibition rate", "setting": "soybean (Glycine max); Table 3, 140 g/ha (flumioxazin), Day 39 after treatment", "result": 10, "unit": "%"}, {"measurement": "Soybean growth inhibition rate", "setting": "soybean (Glycine max); Table 4, 70 g/ha (flumioxazin), Day 13 after treatment", "result": 8, "unit": "%"}, {"measurement": "Soybean growth inhibition rate", "setting": "soybean (Glycine max); Table 4, 70 g/ha (flumioxazin), Day 26 after treatment", "result": 10, "unit": "%"}]}, {"compound": "CC(C)N(C)S(=O)(=O)NC(=O)c1cc(-n2c(=O)cc(C(F)(F)F)n(C)c2=O)c(F)cc1Cl", "note": "[Saflufenacil, saflufenacil]", "values": [{"measurement": "Herbicidal effect, barnyard grass", "setting": "[1]; [7]", "result": 15, "unit": "%"}, {"measurement": "Herbicidal effect, barnyard grass", "setting": "[1]; [8]", "result": 65, "unit": "%"}, {"measurement": "Herbicidal effect, redroot amaranth", "setting": "[2]; [7]", "result": 100, "unit": "%"}, {"measurement": "Herbicidal effect, redroot amaranth", "setting": "[2]; [8]", "result": 100, "unit": "%"}, {"measurement": "Soybean growth inhibition rate", "setting": "soybean (Glycine max); Table 4, 25 g/ha (saflufenacil), Day 13 after treatment", "result": 20, "unit": "%"}, {"measurement": "Soybean growth inhibition rate", "setting": "soybean (Glycine max); Table 4, 25 g/ha (saflufenacil), Day 26 after treatment", "result": 30, "unit": "%"}, {"measurement": "Soybean growth inhibition rate", "setting": "soybean (Glycine max); Table 5, 50 g/ha (saflufenacil), Day 13 after treatment", "result": 30, "unit": "%"}, {"measurement": "Soybean growth inhibition rate", "setting": "soybean (Glycine max); Table 5, 50 g/ha (saflufenacil), Day 26 after treatment", "result": 30, "unit": "%"}]}]}
